# Assay results from patent publication US6737383B1, “Herbicidal oxadiazolidines” (priority 1999, dated 2004).
# Experiments:
# [1] = tested on: soybean; assay: Test B pre/postemergence soybean; format: in vivo, Glycine max
# Procedure, shortened: (§1)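 Herbicidal effect was estimated by eye on a ten-point control scale after plants spent twelve to sixteen days in a greenhouse following soil or foliar treatment. Foliar sprays targeted plants at one to four leaves; all doses were formulated in a non-phytotoxic solvent with surfactant.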
# [2] = tested on: cocklebur; assay: Test B pre/postemergence cocklebur; format: in vivo, Xanthium strumarium
# Procedure, shortened: as §1
# [3] = tested on: pigweed; assay: Test B pre/postemergence pigweed; format: in vivo, Amaranthus retroflexus
# Procedure, shortened: as §1
# [4] = tested on: purple nutsedge; assay: Test B pre/postemergence purple nutsedge; format: in vivo, Cyperus rotundus
# Procedure, shortened: as §1
# [5] = tested on: wheat; assay: Test B pre/postemergence wheat; format: in vivo, Triticum aestivum
# Procedure, shortened: as §1
# [6] = tested on: morningglory; assay: Test B pre/postemergence morningglory; format: in vivo, Ipomoea hederacea
# Procedure, shortened: as §1
# [7] = tested on: sugar beet; assay: Test B pre/postemergence sugar beet; format: in vivo, Beta vulgaris
# Procedure, shortened: as §1
# [8] = tested on: wild oat; assay: Test B pre/postemergence wild oat; format: in vivo, Avena fatua
# Procedure, shortened: as §1
# [9] = tested on: bedstraw; assay: Test B pre/postemergence bedstraw; format: in vivo, Galium aparine
# Procedure, shortened: as §1
# [10] = tested on: giant foxtail; assay: Test B pre/postemergence giant foxtail; format: in vivo, Setaria faberii
# Procedure, shortened: as §1
# [11] = tested on: duck salad; assay: Test B flood test duck salad; format: in vivo, Heteranthera limosa
# Procedure, shortened: (§2)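 Read-out is a visual response score from 0 (no effect) to 10 (complete control), assigned by comparison with untreated controls. Treatment was applied at the 2-leaf stage, and plants stayed in the greenhouse for twelve to sixteen days before scoring.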
# [12] = tested on: velvetleaf; assay: Test B pre/postemergence velvetleaf; format: in vivo, Abutilon theophrasti
# Procedure, shortened: as §1
# [13] = tested on: rice; assay: Test B flood test rice; format: in vivo, Oryza sativa
# Procedure, shortened: as §2
# [14] = tested on: smallflower flatsedge; assay: Test B flood test smallflower flatsedge; format: in vivo, Cyperus difformis
# Procedure, shortened: as §2
# [15] = tested on: bamyardgrass; assay: Test B flood test barnyardgrass; format: in vivo, Echinochloa crus-galli
# Procedure, shortened: as §2
# [16] = tested on: crabgrass; assay: Test B pre/postemergence crabgrass; format: in vivo, Digitaria sanguinalis
# Procedure, shortened: as §1
# [17] = tested on: rape; assay: Test B pre/postemergence rape; format: in vivo, Brassica napus
# Procedure, shortened: as §1
# [18] = tested on: surinam grass; assay: Test B pre/postemergence surinam grass; format: in vivo, Brachiaria decumbens
# Procedure, shortened: as §1
# [19] = tested on: corn; assay: Test B pre/postemergence corn; format: in vivo, Zea mays
# Procedure, shortened: as §1
# [20] = tested on: blackgrass; assay: Test B pre/postemergence blackgrass; format: in vivo, Alopecurus myosuroides
# Procedure, shortened: as §1
# [21] = Postemergence, Rate 125 g/ha, scale 0 to 10, 0 is no effect, 10 is complete control
# [22] = Postemergence, Rate 500 g/ha, scale 0 to 10, 0 is no effect, 10 is complete control
# [23] = Preemergence, Rate 62 g/ha, scale of 0 to 10 where 0 is no effect and 10 is complete control
# [24] = Preemergence, Rate 125 g/ha, scale 0 to 10, 0 is no effect, 10 is complete control
# [25] = Preemergence, Rate 500 g/ha, scale of 0 to 10 where 0 is no effect and 10 is complete control
# [26] = Rate 62 g/ha, Postemergence, scale 0 to 10, 0 no effect, 10 complete control
# [27] = Postemergence, Rate 250 g/ha, scale 0 to 10
# [28] = Preemergence, Rate 250 g/ha, scale 0 to 10, 0 is no effect, 10 is complete control
# [29] = Rate 62 g/ha, flood test species, Pre-emergence, visual evaluation after twelve to sixteen days
# [30] = Rate 125 g/ha, under heading Pre-emergence, flood test species, visual evaluation after twelve to sixteen days
# [31] = Rate 250 g/ha, Pre-emergence (flood test species), scale 0 to 10, 0 is no effect, 10 is complete control
# [32] = Rate 500 g/ha, Pre-emergence section of Table B, 0 to 10 scale (0 no effect, 10 complete control)
compound,measurement,setting,value
CC(C)N(C(=O)n1oc(=O)n(CC2=CCCCC2)c1=O)c1ccccc1 [Compound 496],Soybean plant response rating,[1]; [21],3
same,"Plant response rating, Soybean",[1]; [22],3
same,"Plant response rating, Soybean",[1]; [23],0
same,Soybean plant response rating,[1]; [24],0
same,Soybean plant response rating,[1]; [25],0
same,Soybean plant response rating,[1]; [26],2
same,Cocklebur plant response rating,[2]; [21],0
same,Cocklebur plant response rating,[2]; [27],0
same,"Plant response rating, Cocklebur",[2]; [22],1
same,"Plant response rating, Cocklebur",[2]; [23],0
same,Cocklebur plant response rating,[2]; [24],0
same,Cocklebur plant response rating,[2]; [28],0
same,Cocklebur plant response rating,[2]; [25],0
same,Cocklebur plant response rating,[2]; [26],0
same,Redroot pigweed plant response rating,[3]; [21],0
same,"Plant response rating, Redroot pigweed",[3]; [22],3
same,"Plant response rating, Redroot pigweed",[3]; [23],0
same,Redroot pigweed plant response rating,[3]; [24],0
same,Redroot pigweed plant response rating,[3]; [25],8
same,Redroot pigweed plant response rating,[3]; [26],0
same,Nutsedge plant response rating,[4]; [21],0
same,"Plant response rating, Nutsedge",[4]; [22],0
same,"Plant response rating, Nutsedge",[4]; [23],0
same,Nutsedge plant response rating,[4]; [24],0
same,Nutsedge plant response rating,[4]; [25],0
same,Nutsedge plant response rating,[4]; [26],0
same,Wheat plant response rating,[5]; [21],0
same,"Plant response rating, Wheat",[5]; [22],3
same,"Plant response rating, Wheat",[5]; [23],0
same,Wheat plant response rating,[5]; [24],0
same,Wheat plant response rating,[5]; [25],0
same,Wheat plant response rating,[5]; [26],0
same,Morningglory plant response rating,[6]; [21],8
same,"Plant response rating, Morningglory",[6]; [22],8
same,"Plant response rating, Morningglory",[6]; [23],0
same,Morningglory plant response rating,[6]; [24],0
same,Morningglory plant response rating,[6]; [25],0
same,Morningglory plant response rating,[6]; [26],8
same,Sugarbeets plant response rating,[7]; [21],0
same,"Plant response rating, Sugarbeets",[7]; [22],0
same,"Plant response rating, Sugarbeets",[7]; [23],0
same,Sugarbeets plant response rating,[7]; [24],0
same,Sugarbeets plant response rating,[7]; [25],0
same,Sugarbeets plant response rating,[7]; [26],0
same,Wild oats plant response rating,[8]; [21],0
same,"Plant response rating, Wild oats",[8]; [22],2
same,"Plant response rating, Wild oats",[8]; [23],0
same,Wild oats plant response rating,[8]; [24],0
same,Wild oats plant response rating,[8]; [25],0
same,Wild oats plant response rating,[8]; [26],0
same,Bedstraw plant response rating,[9]; [27],0
same,"Plant response rating, Bedstraw",[9]; [23],0
same,Bedstraw plant response rating,[9]; [24],0
same,Giant foxtail plant response rating,[10]; [21],0
same,"Plant response rating, Giant foxtail",[10]; [22],0
same,"Plant response rating, Giant foxtail",[10]; [23],2
same,Giant foxtail plant response rating,[10]; [24],8
same,Giant foxtail plant response rating,[10]; [25],9
same,Giant foxtail plant response rating,[10]; [26],0
same,"Plant response rating, Ducksalad (0 to 10 scale, 0 is no effect, 10 is complete control)",[11]; [29],0
same,"Ducksalad plant response rating (0 to 10 scale, 0 is no effect, 10 is complete control)",[11]; [30],0
same,Ducksalad plant response rating,[11]; [31],0
same,Ducksalad plant response rating,[11]; [32],0
same,Velvetleaf plant response rating,[12]; [21],0
same,"Plant response rating, Velvetleaf",[12]; [22],0
same,"Plant response rating, Velvetleaf",[12]; [23],0
same,Velvetleaf plant response rating,[12]; [24],0
same,Velvetleaf plant response rating,[12]; [25],0
same,Velvetleaf plant response rating,[12]; [26],0
same,"Plant response rating, Rice (0 to 10 scale, 0 is no effect, 10 is complete control)",[13]; [29],0
same,"Rice plant response rating (0 to 10 scale, 0 is no effect, 10 is complete control)",[13]; [30],0
same,Rice plant response rating,[13]; [31],0
same,Rice plant response rating,[13]; [32],0
same,"Plant response rating, S. Flatsedge (0 to 10 scale, 0 is no effect, 10 is complete control)",[14]; [29],0
same,"S. Flatsedge plant response rating (0 to 10 scale, 0 is no effect, 10 is complete control)",[14]; [30],0
same,S. Flatsedge plant response rating,[14]; [31],0
same,S. Flatsedge plant response rating,[14]; [32],0
same,"Plant response rating, Barnyardgrass (0 to 10 scale, 0 is no effect, 10 is complete control)",[15]; [29],0
same,"Barnyardgrass plant response rating (0 to 10 scale, 0 is no effect, 10 is complete control)",[15]; [30],0
same,Barnyardgrass plant response rating,[15]; [31],0
same,Barnyardgrass plant response rating,[15]; [32],0
same,Crabgrass plant response rating,[16]; [21],0
same,Crabgrass plant response rating,[16]; [27],0
same,"Plant response rating, Crabgrass",[16]; [22],2
same,"Plant response rating, Crabgrass",[16]; [23],0
same,Crabgrass plant response rating,[16]; [24],4
same,Crabgrass plant response rating,[16]; [25],9
same,Crabgrass plant response rating,[16]; [26],0
same,Rape plant response rating,[17]; [21],0
same,"Plant response rating, Rape",[17]; [22],0
same,"Plant response rating, Rape",[17]; [23],0
same,Rape plant response rating,[17]; [24],0
same,Rape plant response rating,[17]; [25],0
same,Rape plant response rating,[17]; [26],0
same,B. signalgrass plant response rating,[18]; [21],0
same,B. signalgrass plant response rating,"[18]; Postemergence, Rate 250 g/ha, scale 0 to 10, 0 no effect, 10 complete control",0
same,"Plant response rating, B. signalgrass",[18]; [22],4
same,"Plant response rating, B. signalgrass",[18]; [23],0
same,B. signalgrass plant response rating,[18]; [24],0
same,B. signalgrass plant response rating,[18]; [28],1
same,B. signalgrass plant response rating,"[18]; Preemergence, Rate 500 g/ha, scale 0 to 10, 0 is no effect, 10 is complete control",8
same,B. signalgrass plant response rating,[18]; [26],0
same,Corn plant response rating,[19]; [21],0
same,Corn plant response rating,[19]; [27],0
same,"Plant response rating, Corn",[19]; [22],0
same,"Plant response rating, Corn",[19]; [23],0
same,Corn plant response rating,[19]; [24],0
same,Corn plant response rating,[19]; [25],0
same,Corn plant response rating,[19]; [26],0
same,Blackgrass plant response rating,[20]; [21],3
same,Blackgrass plant response rating,[20]; [27],3
same,"Plant response rating, Blackgrass",[20]; [22],5
same,"Plant response rating, Blackgrass",[20]; [23],0
same,Blackgrass plant response rating,[20]; [24],0
same,Blackgrass plant response rating,[20]; [28],2
same,Blackgrass plant response rating,[20]; [25],2
same,Blackgrass plant response rating,[20]; [26],2
